Laboratory results from patent US20240239781A1, “1H-PYRAZOLE DERIVATIVES AS SIGMA LIGANDS” (ACONDICIONAMIENTO TARRASENSE, priority 2021, published 2024).

How the values were obtained:
[1] = biological target: T1, human σ1 receptor (Homo sapiens, UniProt Q99720); test: Human σ1 receptor radioligand assay ([3H](+)-pentazocine, transfected HEK-293 membranes); conditions: class scale, read-out: Binding σ-1 Ki
T1 construct: expressed in transfected cells; host or cells: HEK-293
Summary of the method: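 Compounds were tested at a single 1 or 10 μM concentration (% inhibition) or at five concentrations to give Ki. They competed with 5 nM [3H](+)-pentazocine for transfected HEK-293 membranes (7 μg) in 50 mM Tris-HCl pH 8 at 37° C for 120 minutes. Nonspecific binding was set with 10 μM haloperidol, and a filtration scintillation read-out was used.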

[2] = biological target: T2, human σ2/TMEM97 receptor (Homo sapiens, UniProt Q5BJF2); test: Binding assay to human σ2/TMEM97 receptor ([3H]-DTG, transfected HEK-293 membranes); conditions: class scale, read-out: Binding σ-2 Ki
T2 construct: expressed in transfected cells; host or cells: HEK-293
Summary of the method: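 Competition against 10 nM [3H]-DTG (Tris-HCl 50 mM, pH 8.0, 25 °C, 120 min) using 15 μg transfected HEK-293 membrane protein, with 10 μM haloperidol defining NSB. Bound radioactivity counted after filtration; results as single-point % inhibition (1 or 10 μM) or five-point Ki.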

T1 sequence (Q99720 whole entry): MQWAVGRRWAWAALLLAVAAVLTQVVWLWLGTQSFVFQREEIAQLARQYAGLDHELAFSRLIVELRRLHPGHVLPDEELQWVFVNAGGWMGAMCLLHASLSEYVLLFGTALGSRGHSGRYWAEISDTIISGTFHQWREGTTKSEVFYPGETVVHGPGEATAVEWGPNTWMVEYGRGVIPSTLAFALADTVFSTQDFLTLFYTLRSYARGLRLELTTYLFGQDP
T2 sequence (Q5BJF2 whole entry): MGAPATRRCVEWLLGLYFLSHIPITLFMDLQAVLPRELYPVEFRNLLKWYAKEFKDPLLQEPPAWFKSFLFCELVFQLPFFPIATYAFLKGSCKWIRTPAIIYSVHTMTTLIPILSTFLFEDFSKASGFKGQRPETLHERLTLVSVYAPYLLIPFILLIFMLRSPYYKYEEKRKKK

`Cc1cccc(-c2nn(C)c(Cl)c2C(=O)NC2CCN(CCC(C)(C)C)CC2)n1` [Example 168, 5-Chloro-N-(1-(3,3-dimethylbutyl)piperidin-4-yl)-1-methyl-3-(6-methylpyridin-2-yl)-1H-pyrazole-4-carboxamide] gave a Ki [1] of 100 to 500 nM and a Ki [2] of less than 100 nM.
`Cc1cc(-c2nn(C)c(Cl)c2C(=O)N2CC[C@]3(C2)C[C@H](NCCC(C)(C)C)C3)no1` [Example 169, (5-Chloro-1-methyl-3-(5-methylisoxazol-3-yl)-1H-pyrazol-4-yl)((2s,4r)-2-((3,3-dimethylbutyl)amino)-6-azaspiro[3.4]octan-6-yl)methanone] showed a Ki [1] greater than 1000 nM and a Ki [2] of less than 100 nM.
Work on `Cc1cc(-c2nn(-c3ccncc3)c(Cl)c2C(=O)N2CCC3(CCN(CCC(C)(C)C)CC3)CC2)no1` [Example 170, (5-Chloro-3-(5-methylisoxazol-3-yl)-1-(pyridin-4-yl)-1H-pyrazol-4-yl)(9-(3,3-dimethylbutyl)-3,9-diazaspiro[5.5]undecan-3-yl)methanone] yielded a Ki [1] of 100 to 500 nM and a Ki [2] of less than 100 nM.
`CCn1nc(-c2ccon2)c(C(=O)N2CCC3(CCN(CCC(C)(C)C)CC3)CC2)c1Cl` [Example 171, (5-Chloro-1-ethyl-3-(isoxazol-3-yl)-1H-pyrazol-4-yl)(9-(3,3-dimethylbutyl)-3,9-diazaspiro[5.5]undecan-3-yl)methanone] gave a Ki [1] of 100 to 500 nM and a Ki [2] of less than 100 nM.
`Cc1cc(-c2nn(-c3ccccn3)c(Cl)c2C(=O)N2CCC3(CCN(CCC(C)(C)C)CC3)CC2)no1` [Example 172, (5-Chloro-3-(5-methylisoxazol-3-yl)-1-(pyridin-2-yl)-1H-pyrazol-4-yl)(9-(3,3-dimethylbutyl)-3,9-diazaspiro[5.5]undecan-3-yl)methanone] showed a Ki [1] of 500 to 1000 nM and a Ki [2] of less than 100 nM.
`Cn1nc(-c2ccccn2)c(C(=O)N2CCC3(CCN(CCC(C)(C)C)CC3)CC2)c1Cl` [Example 173, (5-Chloro-1-methyl-3-(pyridin-2-yl)-1H-pyrazol-4-yl)(9-(3,3-dimethylbutyl)-3,9-diazaspiro[5.5]undecan-3-yl)methanone] gave a Ki [1] of 500 to 1000 nM and a Ki [2] of less than 100 nM.
`Cc1cc(-c2nn(C)c(Cl)c2C(=O)N2CCC3(CC2)CC(NCCC(C)(C)C)C3)no1` [Example 174, (5-Chloro-1-methyl-3-(5-methylisoxazol-3-yl)-1H-pyrazol-4-yl)(2-((3,3-dimethylbutyl)amino)-7-azaspiro[3.5]nonan-7-yl)methanone] gave a Ki [1] of 500 to 1000 nM and a Ki [2] of less than 100 nM.
Work on `Cc1cc(-c2nn(C)c(Cl)c2C(=O)N2CCC3(CCN(Cc4ccccc4)CC3)CC2)no1` [Example 175, (9-Benzyl-3,9-diazaspiro[5.5]undecan-3-yl)(5-chloro-1-methyl-3-(5-methylisoxazol-3-yl)-1H-pyrazol-4-yl)methanone] yielded a Ki [1] of 500 to 1000 nM and a Ki [2] of less than 100 nM.
For `CCc1nc(C)c(-c2nn(C)c(Cl)c2C(=O)N2CCC3(CCN(CCC(C)(C)C)CC3)CC2)o1` [Example 176, (5-Chloro-3-(2-ethyl-4-methyloxazol-5-yl)-1-methyl-1H-pyrazol-4-yl)(9-(3,3-dimethylbutyl)-3,9-diazaspiro[5.5]undecan-3-yl)methanone], the Ki [1] was greater than 1000 nM and the Ki [2] was less than 100 nM.
Compound `CC(C)c1cc(-c2nn(C)c(Cl)c2C(=O)N2CCC3(CCN(CCC(C)(C)C)CC3)CC2)no1` [Example 177, (5-Chloro-3-(5-isopropylisoxazol-3-yl)-1-methyl-1H-pyrazol-4-yl)(9-(3,3-dimethylbutyl)-3,9-diazaspiro[5.5]undecan-3-yl)methanone] has a Ki [1] of 100 to 500 nM and a Ki [2] of less than 100 nM.
With `Cn1cc(-c2nn(C)c(Cl)c2C(=O)N2CCC3(CCN(CCC(C)(C)C)CC3)CC2)cn1` [Example 178, (5-Chloro-1,1′-dimethyl-1H,1′H-[3,4′-bipyrazol]-4-yl)(9-(3,3-dimethylbutyl)-3,9-diazaspiro[5.5]undecan-3-yl)methanone] the Ki [1] was greater than 1000 nM and the Ki [2] was 100 to 500 nM.
Work on `CCn1ccc(-c2nn(C)c(Cl)c2C(=O)N2CCC3(CCN(CCC(C)(C)C)CC3)CC2)n1` [Example 179, (5-Chloro-1′-ethyl-1-methyl-1H,1′H-[3,3′-bipyrazol]-4-yl)(9-(3,3-dimethylbutyl)-3,9-diazaspiro[5.5]undecan-3-yl)methanone] yielded a Ki [1] greater than 1000 nM and a Ki [2] of less than 100 nM.
Compound `Cn1nc(-c2cccc(C(F)(F)F)n2)c(C(=O)N2CCC3(CCN(CCC(C)(C)C)CC3)CC2)c1Cl` [Example 180, (5-Chloro-1-methyl-3-(6-(trifluoromethyl)111ndecane-2-yl)-1H-pyrazol-4-yl)(9-(3,3-dimethylbutyl)-3,9-diazaspiro[5.5]111ndecane-3-yl)methanone] has a Ki [1] of 100 to 500 nM and a Ki [2] of less than 100 nM.
For `Cn1ccc(-c2nn(C)c(Cl)c2C(=O)N2CCC3(CCN(CCC(C)(C)C)CC3)CC2)n1` [Example 181, (5-Chloro-1,1′-dimethyl-1H,1′H-[3,3′-bipyrazol]-4-yl)(9-(3,3-dimethylbutyl)-3,9-diazaspiro[5.5]undecan-3-yl)methanone], the Ki [1] was greater than 1000 nM and the Ki [2] was 100 to 500 nM.
With `CCCn1nc(-c2cc(C)on2)c(C(=O)N2CCC3(CCN(CCC(C)(C)C)CC3)CC2)c1Cl` [Example 182, (5-Chloro-3-(5-methylisoxazol-3-yl)-1-propyl-1H-pyrazol-4-yl)(9-(3,3-dimethylbutyl)-3,9-diazaspiro[5.5]undecan-3-yl)methanone] the Ki [1] was 100 to 500 nM and the Ki [2] was less than 100 nM.
`Cc1cc(-c2nn(C(C)C)c(Cl)c2C(=O)N2CCC3(CCN(CCC(C)(C)C)CC3)CC2)no1` [Example 183, (5-Chloro-1-isopropyl-3-(5-methylisoxazol-3-yl)-1H-pyrazol-4-yl)(9-(3,3-dimethylbutyl)-3,9-diazaspiro[5.5]undecan-3-yl)methanone] gave a Ki [1] of 500 to 1000 nM and a Ki [2] of less than 100 nM.
Work on `CCn1nc(-c2cc(C)on2)c(C(=O)N2CC3(CCN(CCC(C)(C)C)CC3)C2)c1Cl` [Example 184, (5-Chloro-1-ethyl-3-(5-methylisoxazol-3-yl)-1H-pyrazol-4-yl)(7-(3,3-dimethylbutyl)-2,7-diazaspiro[3.5]nonan-2-yl)methanone] yielded a Ki [1] of 100 to 500 nM and a Ki [2] of less than 100 nM.
Compound `CCCn1nc(-c2cc(C)on2)c(C(=O)N2CC3(CCN(CCC(C)(C)C)CC3)C2)c1Cl` [Example 185, (5-Chloro-3-(5-methylisoxazol-3-yl)-1-propyl-1H-pyrazol-4-yl)(7-(3,3-dimethylbutyl)-2,7-diazaspiro[3.5]nonan-2-yl)methanone] has a Ki [1] of 100 to 500 nM and a Ki [2] of less than 100 nM.
For `CCOc1cccc(-c2nn(C)c(Cl)c2C(=O)N2CCC3(CCN(CCC(C)(C)C)CC3)CC2)n1` [Example 186, (5-Chloro-3-(6-ethoxypyridin-2-yl)-1-methyl-1H-pyrazol-4-yl)(9-(3,3-dimethylbutyl)-3,9-diazaspiro[5.5]undecan-3-yl)methanone], the Ki [1] was 100 to 500 nM and the Ki [2] was less than 100 nM.
Compound `CCn1nc(-c2ccon2)c(C(=O)N2CC3(CCN(CCC(C)(C)C)CC3)C2)c1Cl` [Example 187, (5-Chloro-1-ethyl-3-(isoxazol-3-yl)-1H-pyrazol-4-yl)(7-(3,3-dimethylbutyl)-2,7-diazaspiro[3.5]nonan-2-yl)methanone] has a Ki [1] of 500 to 1000 nM and a Ki [2] of less than 100 nM.
`Cc1cc(-c2nn(C(C)C)c(Cl)c2C(=O)N2CC3(CCN(CCC(C)(C)C)CC3)C2)no1` [Example 188, (5-Chloro-1-isopropyl-3-(5-methylisoxazol-3-yl)-1H-pyrazol-4-yl)(7-(3,3-dimethylbutyl)-2,7-diazaspiro[3.5]nonan-2-yl)methanone] gave a Ki [1] of 500 to 1000 nM and a Ki [2] of less than 100 nM.
Work on `Cc1cccc(-c2nn(C)c(Cl)c2C(=O)N2CCC3(CCN(CCC(C)(C)C)CC3)CC2)n1` [Example 189, (5-Chloro-1-methyl-3-(6-methylpyridin-2-yl)-1H-pyrazol-4-yl)(9-(3,3-dimethylbutyl)-3,9-diazaspiro[5.5]undecan-3-yl)methanone] yielded a Ki [1] of 500 to 1000 nM and a Ki [2] of less than 100 nM.
For `CCn1nc(-c2cc(C3CC3)on2)c(C(=O)N2CCC3(CCN(CCC(C)(C)C)CC3)CC2)c1Cl` [Example 190, (5-Chloro-3-(5-cyclopropylisoxazol-3-yl)-1-ethyl-1H-pyrazol-4-yl)(9-(3,3-dimethylbutyl)-3,9-diazaspiro[5.5]undecan-3-yl)methanone], the Ki [1] was 100 to 500 nM and the Ki [2] was less than 100 nM.
In the case of `Cn1nc(-c2cc(C3CC3)on2)c(C(=O)N2CCC3(CCN(CCC(C)(C)C)CC3)CC2)c1Cl` [Example 191, (5-Chloro-3-(5-cyclopropylisoxazol-3-yl)-1-methyl-1H-pyrazol-4-yl)(9-(3,3-dimethylbutyl)-3,9-diazaspiro[5.5]undecan-3-yl)methanone], the Ki [1] is reported as 100 to 500 nM and the Ki [2] is reported as less than 100 nM.
`CCn1nc(-c2cc(C(C)C)on2)c(C(=O)N2CCC3(CCN(CCC(C)(C)C)CC3)CC2)c1Cl` [Example 192, (5-Chloro-1-ethyl-3-(5-isopropylisoxazol-3-yl)-1H-pyrazol-4-yl)(9-(3,3-dimethylbutyl)-3,9-diazaspiro[5.5]undecan-3-yl)methanone] showed a Ki [1] of 100 to 500 nM and a Ki [2] of less than 100 nM.
In the case of `Cc1cc(-c2nn(C)c(Cl)c2C(=O)N2CCCC3(CN(CCC(C)(C)C)C3)C2)no1` [Example 193, (5-Chloro-1-methyl-3-(5-methylisoxazol-3-yl)-1H-pyrazol-4-yl)(2-(3,3-dimethylbutyl)-2,6-diazaspiro[3.5]nonan-6-yl)methanone], the Ki [1] is reported as 500 to 1000 nM and the Ki [2] is reported as less than 100 nM.
Compound `CCn1nc(-c2cc(C)on2)c(C(=O)N2CCCC3(CN(CCC(C)(C)C)C3)C2)c1Cl` [Example 194, (5-Chloro-1-ethyl-3-(5-methylisoxazol-3-yl)-1H-pyrazol-4-yl)(2-(3,3-dimethylbutyl)-2,6-diazaspiro[3.5]nonan-6-yl)methanone] has a Ki [1] of 500 to 1000 nM and a Ki [2] of less than 100 nM.
